Laboratory results: patent publication US7973056B2, “Triazole derivative or salt thereof” (Fujifilm Finechemicals Co., Ltd, priority 2008, dated 2011)
≈ marks a conversion by molar mass, not a printed value.

Key:
Assay in all cases: Antifungal activity test (in vitro), MIC
Type in all cases: cell-based
[1] = tested on: Aspergillus fumigatus ATCC 1028; conditions: ATCC1028
Description: Minimum inhibitory concentration (MIC) of each of the compounds obtained in Examples 1 to 12 was measured for respective fungi at MOS Pharm Service, by the methods described in Antimicrobial Agents and Chemotherapy, vol. 3, pp. 40-48 (1973), Antimicrobial Agents and Chemotherapy, vol. 33, pp. 215-222 (1989) and Antimicrobial Agents and Chemotherapy, vol. 38, pp. 2362-2368 (1994). The measuring conditions are shown in the following. In this case, Voriconazol was used as a comparative compound.
Aspergillus fumigatus ATCC 1028; Cultured at 28° C. for 2 days using potato dextrose broth, and this was used as a cell suspension.
Each of the compounds of the invention was adjusted to a concentration of 1% by weight using dimethyl sulfoxide (DMSO) and a medium similar to the respective medium used in the above-mentioned fungal culture, having a final concentration of from 0.001 to 100 μg/ml, was prepared. Each of the inoculation cell suspensions prepared by the above-mentioned methods was inoculated onto this agar plate. […] In this connection, Voriconazol was used as the comparative compound C-1.

[2] = tested on: Cryptococcus neoformans ATCC 24067; conditions: ATCC24067
Description: (§1) Minimum inhibitory concentration (MIC) of each of the compounds obtained in Examples 1 to 12 was measured for respective fungi at MOS Pharm Service, by the methods described in Antimicrobial Agents and Chemotherapy, vol. 3, pp. 40-48 (1973), Antimicrobial Agents and Chemotherapy, vol. 33, pp. 215-222 (1989) and Antimicrobial Agents and Chemotherapy, vol. 38, pp. 2362-2368 (1994). The measuring conditions are shown in the following. In this case, Voriconazol was used as a comparative compound. Cryptococcus neoformans ATCC 24067, Pityrosporum ovale ATCC 38593; Cultured at 37° C. for 2 day using fluid Sabouraud medium, and this was used as a cell suspension. Each of the compounds of the invention was adjusted to a concentration of 1% by weight using dimethyl sulfoxide (DMSO) and a medium similar to the respective medium used in the above-mentioned fungal culture, having a final concentration of from 0.001 to 100 μg/ml, was prepared. Each of the inoculation cell suspensions prepared by the above-mentioned methods was inoculated onto this agar plate. […] In this connection, Voriconazol was used as the comparative compound C-1.

[3] = tested on: Pityrosporum ovale ATCC 38593; conditions: Malassezia furfur, ATCC38593
Description: as §1

[4] = tested on: Microsporum canis ATCC 36299; conditions: ATCC36299
Description: as §1, with “Microsporum canis” for “Cryptococcus neoformans”, “36299;” for “24067, Pityrosporum ovale ATCC 38593;”, “30°” for “37°”, “days” for “day”

[5] = tested on: Trichophyton mentagrophytes ATCC 9533; conditions: ATCC9533
Description: as §1, with “Trichophyton mentagrophytes” for “Cryptococcus neoformans”, “9533;” for “24067, Pityrosporum ovale ATCC 38593;”, “28°” for “37°”, “3 days” for “2 day”

[6] = tested on: Candida albicans ATCC 10231; conditions: ATCC10231
Description: as §1, with “Candida albicans” for “Cryptococcus neoformans”, “10231 and” for “24067, Pityrosporum ovale”, “44858;” for “38593;”, “20 hours” for “2 day”

Structure (SMILES) | MIC [1] [µg/mL] | MIC [2] [µg/mL] | MIC [3] [µg/mL] | MIC [4] [µg/mL] | MIC [5] [µg/mL] | MIC [6] [µg/mL]
C[C@@H](N1CC=C(c2ccc(Cl)cn2)CC1)[C@](O)(Cn1cncn1)c1ccc(F)cc1F [I-6, (2R,3R)-3-(5-chloro-3′,6′-dihydro-2,4′-bipyridin-1′(2′H)-yl)-2-(2,4-difluorophenyl)-1-(1,2,4-triazol-1-yl)butan-2-ol] | 1 (≈ 2.24 µM) | 0.03 (≈ 0.0673 µM) | 0.003 (≈ 0.00673 µM) | 0.3 (≈ 0.673 µM) | 0.1 (≈ 0.224 µM) | 0.01 (≈ 0.0224 µM)
C[C@@H](N1CCC(c2ccccn2)CC1)[C@](O)(Cn1cncn1)c1ccc(F)cc1F [I-1, (2R,3R)-2-(2,4-difluorophenyl)-3-(4-pyridin-2-ylpiperidin-1-yl)-1-(1,2,4-triazol-1-yl)butan-2-ol] | 10 (≈ 24.2 µM) | 0.1 (≈ 0.242 µM) | 0.3 (≈ 0.726 µM) | 0.3 (≈ 0.726 µM) | 0.3 (≈ 0.726 µM) | 0.3 (≈ 0.726 µM)
C[C@@H](N1CC=C(c2ccccn2)CC1)[C@](O)(Cn1cncn1)c1ccc(F)cc1F [I-3, (2R,3R)-2-(2,4-difluorophenyl)-3-(3′,6′-dihydro-2,4′-bipyridin-1′(2′H)-yl)-1-(1,2,4-triazol-1-yl)butan-2-ol] | 1 (≈ 2.43 µM) | 0.3 (≈ 0.729 µM) | 0.003 (≈ 0.00729 µM) | 0.03 (≈ 0.0729 µM) | 0.1 (≈ 0.243 µM) | 0.3 (≈ 0.729 µM)
